Active and inactive are the calls of the source. The calls are words filed in the database; no cut-off is given here.
Experiments:
[1] = system: HL-60; assay: Cytotoxicity against human HL60 cells after 48 hrs by cell counting kit-8 assay; format: functional, cell-based; details: HL-60, 48 h
[2] = system: HeLa; assay: Cytotoxicity against human HeLa cells after 48 hrs by MTT assay; format: functional, cell-based
[3] = system: A549; assay: Cytotoxicity against human A549 cells after 48 hrs by MTT assay; format: functional, cell-based; details: A549, 48 h
[4] = Cytotoxicity against human HCT8 cells after 48 hrs by MTT assay; format: functional, cell-based; details: HCT-8, 48 h
[5] = system: HeLa; assay: Induction of apoptosis in human HeLa cells assessed as upregulation of caspase-3 protein expression at 5 uM after 1 to 24 hrs by Western blotting analysis; format: functional, cell-based
[6] = system: HeLa; assay: Cell cycle arrest in human HeLa cells assessed as accumulation at G2/M phase at 5 uM by propidium iodide staining-based FACS flow cytometric analysis (reference value: 15.0%); format: functional
[7] = system: HeLa; assay: Cell cycle arrest in human HeLa cells assessed as accumulation at S phase at 5 uM by propidium iodide staining-based FACS flow cytometric analysis (reference value: 16.3%); format: functional
[8] = system: HeLa; assay: Induction of apoptosis in human HeLa cells assessed as upregulation of Bax protein expression at 5 uM after 1 to 24 hrs by Western blotting analysis; format: functional, cell-based
[9] = system: HeLa; assay: Cell cycle arrest in human HeLa cells assessed as accumulation at S phase at 10 uM by propidium iodide staining-based FACS flow cytometric analysis (reference value: 16.3%); format: functional
[10] = system: HeLa; assay: Cell cycle arrest in human HeLa cells assessed as accumulation at G1 phase at 0.5 uM by propidium iodide staining-based FACS flow cytometric analysis (reference value: 54.7%); format: functional
[11] = system: HeLa; assay: Cell cycle arrest in human HeLa cells assessed as accumulation at sub-G1 phase at 5 uM after 24 hrs by propidium iodide staining-based FACS flow cytometric analysis (reference value: 1.8%); format: functional
[12] = system: HeLa; assay: Cell cycle arrest in human HeLa cells assessed as accumulation at S phase at 5 uM after 12 hrs by propidium iodide staining-based FACS flow cytometric analysis (reference value: 9.0%); format: functional
[13] = system: DNA; assay: Binding affinity to calf thymus DNA assessed as increase in complex fluorescence using 1 to 6 uM of DNA at 1 uM after 5 mins by fluorescence assay; format: nucleic-acid assay; details: Bos taurus
[14] = system: HeLa; assay: Cell cycle arrest in human HeLa cells assessed as accumulation at G1 phase at 5 uM after 12 hrs by propidium iodide staining-based FACS flow cytometric analysis (reference value: 57.2%); format: functional
[15] = system: HeLa; assay: Cell cycle arrest in human HeLa cells assessed as accumulation at sub-G1 phase at 0.5 uM by propidium iodide staining-based FACS flow cytometric analysis (reference value: 4.4%); format: functional
[16] = system: HeLa; assay: Cell cycle arrest in human HeLa cells assessed as accumulation at sub-G1 phase at 10 uM by propidium iodide staining-based FACS flow cytometric analysis (reference value: 4.4%); format: functional
[17] = system: HeLa; assay: Induction of apoptosis in human HeLa cells assessed as upregulation of Bax protein expression at 5 uM by Western blotting analysis; format: functional, cell-based; details: TDE = time-dependent effect
[18] = system: HeLa; assay: Cell cycle arrest in human HeLa cells assessed as accumulation at G2/M phase at 5 uM after 24 hrs by propidium iodide staining-based FACS flow cytometric analysis (reference value: 22.7%); format: functional
[19] = system: HeLa; assay: Cell cycle arrest in human HeLa cells assessed as accumulation at G2/M phase at 0.5 uM by propidium iodide staining-based FACS flow cytometric analysis (reference value: 15.0%); format: functional
[20] = system: HeLa; assay: Cell cycle arrest in human HeLa cells assessed as accumulation at S phase at 5 uM after 24 hrs by propidium iodide staining-based FACS flow cytometric analysis (reference value: 9.0%); format: functional
[21] = system: HeLa; assay: Cell cycle arrest in human HeLa cells assessed as accumulation at G2/M phase at 5 uM after 12 hrs by propidium iodide staining-based FACS flow cytometric analysis (reference value: 22.7%); format: functional
[22] = system: HeLa; assay: Induction of apoptosis in human HeLa cells assessed as upregulation of p53 protein expression at 5 uM by Western blotting analysis; format: functional, cell-based; details: TDE = time-dependent effect
[23] = system: HeLa; assay: Cell cycle arrest in human HeLa cells assessed as accumulation at S phase at 0.5 uM by propidium iodide staining-based FACS flow cytometric analysis (reference value: 16.3%); format: functional
[24] = system: HeLa; assay: Induction of apoptosis in human HeLa cells assessed as upregulation of p53 protein expression at 5 uM after 1 to 24 hrs by Western blotting analysis; format: functional, cell-based
[25] = system: HeLa; assay: Cell cycle arrest in human HeLa cells assessed as accumulation at G2/M phase at 10 uM by propidium iodide staining-based FACS flow cytometric analysis (reference value: 15.0%); format: functional
[26] = system: HeLa; assay: Cell cycle arrest in human HeLa cells assessed as accumulation at G1 phase at 10 uM by propidium iodide staining-based FACS flow cytometric analysis (reference value: 54.7%); format: functional
[27] = system: HeLa; assay: Cell cycle arrest in human HeLa cells assessed as accumulation at sub-G1 phase at 5 uM after 12 hrs by propidium iodide staining-based FACS flow cytometric analysis (reference value: 1.8%); format: functional
[28] = system: HeLa; assay: Induction of apoptosis in human HeLa cells assessed as upregulation of caspase-3 protein expression at 5 uM by Western blotting analysis; format: functional, cell-based; details: TDE = time-dependent effect
[29] = system: HeLa; assay: Cell cycle arrest in human HeLa cells assessed as accumulation at sub-G1 phase at 5 uM by propidium iodide staining-based FACS flow cytometric analysis (reference value: 4.4%); format: functional
[30] = system: DNA; assay: Binding affinity to calf thymus DNA assessed as change in DNA conformation from B-form to C-form at 5 to 40 ug/ml after 24 hrs by circular dichorism spectroscopy; format: nucleic-acid assay; details: Bos taurus
[31] = system: HeLa; assay: Cell cycle arrest in human HeLa cells assessed as accumulation at G1 phase at 5 uM by propidium iodide staining-based FACS flow cytometric analysis (reference value: 54.7%); format: functional
[32] = system: HeLa; assay: Cell cycle arrest in human HeLa cells assessed as accumulation at G1 phase at 5 uM after 24 hrs by propidium iodide staining-based FACS flow cytometric analysis (reference value: 57.2%); format: functional
[33] = system: HeLa; assay: Cell cycle arrest in human HeLa cells assessed as accumulation at sub-G1 phase by propidium iodide staining-based FACS flow cytometric analysis; format: functional

## COc1cc([C@@H]2c3cc4c(cc3[C@@H](OC(=O)N3CCN(C)CC3)[C@H]3COC(=O)[C@H]23)OCO4)cc(OC)c1O
[1]
  IC50: 190 nM
[2]
  IC50: 20000 nM
[3]
  IC50: 4180 nM
[4]
  IC50: 30 nM

## COc1cc([C@@H]2c3cc4c(cc3[C@@H](OC(=O)N[C@@H](CCSC)C(=O)N3CCN(c5ccc([N+](=O)[O-])cc5)CC3)[C@H]3COC(=O)[C@H]23)OCO4)cc(OC)c1O
[1]
  IC50: 10 nM
[2]
  IC50: 49400 nM
[3]
  IC50: > 100000 nM
[4]
  IC50: 570 nM

## COc1cc([C@@H]2c3cc4c(cc3[C@@H](OC(=O)N[C@H](CCSC)C(=O)N3CCN(c5ccc([N+](=O)[O-])cc5)CC3)[C@H]3COC(=O)[C@H]23)OCO4)cc(OC)c1O
[1]
  IC50: 20 nM
[2]
  IC50: > 100000 nM
[3]
  IC50: > 100000 nM
[4]
  IC50: 850 nM

## COc1cc([C@@H]2c3cc4c(cc3[C@@H](OC(=O)N3CCN(c5ccc([N+](=O)[O-])cc5)CC3)[C@H]3COC(=O)[C@H]23)OCO4)cc(OC)c1O
[5]
  Activity: Active
[6]
  Activity: 22.5%
[7]
  Activity: 10.2%
[8]
  Activity: Active
[9]
  Activity: 13.1%
[10]
  Activity: 35.9%
[11]
  Activity: 11.1%
[12]
  Activity: 10.2%
[13]
  Activity: Active
[14]
  Activity: 43.8%
[15]
  Activity: 21.7%
[16]
  Activity: 24.7%
[17]
  Activity: tde
[18]
  Activity: 38.1%
[1]
  IC50: 170 nM
[2]
  IC50: 74 nM
[19]
  Activity: 20.5%
[20]
  Activity: 10.2%
[3]
  IC50: 1670 nM
[21]
  Activity: 29.9%
[22]
  Activity: tde
[23]
  Activity: 9.8%
[24]
  Activity: Active
[25]
  Activity: 29.1%
[26]
  Activity: 26%
[27]
  Activity: 4.1%
[28]
  Activity: tde
[4]
  IC50: < 10 nM
[29]
  Activity: 23%
[30]
  Activity: Active
[31]
  Activity: 33.9%
[32]
  Activity: 33.3%
[33]
  Activity: Dose-dependent effect

## COc1cc([C@@H]2c3cc4c(cc3[C@@H](OC(=O)N[C@@H](C)C(=O)N3CCN(c5ccc([N+](=O)[O-])cc5)CC3)[C@H]3COC(=O)[C@H]23)OCO4)cc(OC)c1O
[1]
  IC50: 130 nM
[2]
  IC50: > 100000 nM
[3]
  IC50: 19000 nM
[4]
  IC50: 710 nM

## CCCNC(=O)O[C@@H]1c2cc3c(cc2[C@@H](c2cc(OC)c(O)c(OC)c2)[C@H]2C(=O)OC[C@@H]21)OCO3
[1]
  IC50: 90 nM
[2]
  IC50: 13200 nM
[3]
  IC50: 8830 nM
[4]
  IC50: 185 nM

## COc1cc([C@@H]2c3cc4c(cc3[C@@H](OC(=O)N3CCN(c5ccc([N+](=O)[O-])cc5)CC3)[C@H]3COC(=O)[C@H]23)OCO4)cc(OC)c1OC(=O)N1CCN(c2ccc([N+](=O)[O-])cc2)CC1
[1]
  IC50: 350 nM
[3]
  IC50: 56900 nM
[4]
  IC50: 10 nM

## COc1cc([C@@H]2c3cc4c(cc3[C@@H](OC(=O)N[C@H](C(=O)N3CCN(c5ccc([N+](=O)[O-])cc5)CC3)C(C)C)[C@H]3COC(=O)[C@H]23)OCO4)cc(OC)c1O
[1]
  IC50: 260 nM
[2]
  IC50: > 100000 nM
[3]
  IC50: 8320 nM
[4]
  IC50: 10 nM

## COc1cc([C@@H]2c3cc4c(cc3[C@@H](O[C@@H]3O[C@@H]5CO[C@@H](C)O[C@H]5[C@H](O)[C@H]3O)[C@H]3COC(=O)[C@H]23)OCO4)cc(OC)c1O [ETOPOSIDE]
[2]
  IC50: 2910 nM

## COc1cc([C@@H]2c3cc4c(cc3[C@@H](OC(=O)N3CCN(C5CCCC5)CC3)[C@H]3COC(=O)[C@H]23)OCO4)cc(OC)c1O
[1]
  IC50: < 10 nM
[2]
  IC50: 4400 nM
[3]
  IC50: 3890 nM
[4]
  IC50: 1620 nM

## COc1cc([C@@H]2c3cc4c(cc3[C@@H](OC(=O)NC3CC3)[C@H]3COC(=O)[C@H]23)OCO4)cc(OC)c1O
[1]
  IC50: 160 nM
[2]
  IC50: 10800 nM
[3]
  IC50: 18300 nM
[4]
  IC50: 80 nM

## COc1cc([C@@H]2c3cc4c(cc3[C@@H](OC(=O)N[C@H](Cc3ccccc3)C(=O)N3CCN(c5ccc([N+](=O)[O-])cc5)CC3)[C@H]3COC(=O)[C@H]23)OCO4)cc(OC)c1O
[1]
  IC50: 40 nM
[2]
  IC50: 28600 nM
[3]
  IC50: > 100000 nM
[4]
  IC50: 70 nM

## COc1cc([C@@H]2c3cc4c(cc3[C@@H](OC(=O)N3CCOCC3)[C@H]3COC(=O)[C@H]23)OCO4)cc(OC)c1O
[1]
  IC50: 10 nM
[2]
  IC50: 8590 nM
[3]
  IC50: 8550 nM
[4]
  IC50: 150 nM

## COc1cc([C@@H]2c3cc4c(cc3[C@@H](OC(=O)N[C@@H](Cc3ccccc3)C(=O)N3CCN(c5ccc([N+](=O)[O-])cc5)CC3)[C@H]3COC(=O)[C@H]23)OCO4)cc(OC)c1O
[1]
  IC50: 30 nM
[2]
  IC50: 4130 nM
[3]
  IC50: 9550 nM
[4]
  IC50: 10 nM

## COc1cc([C@@H]2c3cc4c(cc3[C@@H](OC(=O)N3CCN(c5ccc(F)cc5)CC3)[C@H]3COC(=O)[C@H]23)OCO4)cc(OC)c1O
[1]
  IC50: 330 nM
[2]
  IC50: 1580 nM
[3]
  IC50: 5240 nM
[4]
  IC50: 10 nM

## COc1cc([C@@H]2c3cc4c(cc3[C@@H](OC(=O)N3CCOCC3)[C@H]3COC(=O)[C@H]23)OCO4)cc(OC)c1OC(=O)N1CCOCC1
[1]
  IC50: < 10 nM
[2]
  IC50: > 100000 nM
[3]
  IC50: > 100000 nM
[4]
  IC50: 130 nM

## COc1cc([C@@H]2c3cc4c(cc3[C@@H](OC(=O)NC3CCCCC3)[C@H]3COC(=O)[C@H]23)OCO4)cc(OC)c1O
[1]
  IC50: 270 nM
[2]
  IC50: 5400 nM
[3]
  IC50: 26100 nM
[4]
  IC50: 1240 nM

## COc1cc([C@@H]2c3cc4c(cc3[C@@H](OC(=O)NC3CCCC3)[C@H]3COC(=O)[C@H]23)OCO4)cc(OC)c1O
[1]
  IC50: 210 nM
[2]
  IC50: 3750 nM
[3]
  IC50: 4540 nM
[4]
  IC50: 330 nM

Reference: ChEMBL document CHEMBL3091367, “Synthesis and evaluation of the apoptosis inducing and CT DNA interaction properties of a series of 4β-carbamoyl 4'-O-demethylepipodophyllotoxins” (Eur J Med Chem, 2013)
